From publication PMC12023841, “Unlocking the Gates: A Novel Diagnostic Molecule for Quantifying Efflux Levels in Gram‐Positive Bacteria” (Advanced Healthcare Materials, 2025)
Values after ≈ are worked out from the molar mass of the structure shown. “Also recorded” adds a separate entry of the source. Where two headings read alike, the source gives them in different places.

Key:
[1] = system: Staphylococcus aureus ATCC 25923 (Reference, basal); assay: MIC, broth microdilution (CLSI); assay type: cell-based; details: ATCC25923
[2] = system: SA 1199 (Wild‐type, basal); assay: MIC, broth microdilution (CLSI); assay type: cell-based; details: Staphylococcus aureus
[3] = system: SA 1199‐B (norA overexpressing); assay: microbe, parasite or virus in culture; assay type: cell-based, Staphylococcus aureus; details: Staphylococcus aureus
SA‐K1758 (∆norA) = assay: microbe, parasite or virus in culture; assay type: cell-based; details: Staphylococcus aureus
[4] = Solution‐state stability test in MH‐II broth; assay type: physicochemical; details: 512–1 µg mL^−1, 37 °C for a day, centrifuged
Method: Before accessing the minimal inhibitory concentration (MIC), each phenazinium derivative was subjected to a solution‐state stability test. For this experiment, each derivative was solubilized in DMSO to achieve a primary stock solution (20 mg mL^−1). This stock was further diluted in MilliQ to achieve a working stock solution (10 mg mL^−1). […] The tubes were placed in an incubator at 37 °C for a day and later centrifuged at 25 000 rpm for 25 min.

S. aureus strains [5] = details: cited from earlier work
S. epidermidis strains = system: S. epidermidis strains; design: method as in earlier work; details: cited from earlier work; also: key: S: Susceptible; R: Resistant; I: Intermediate
S. aureus strains [6] = details: cited from earlier work; remark: listed apart in the source
For Susceptibility profile in this document: key: S: Susceptible; R: Resistant; I: Intermediate.

## CCCCCCCCNc1ccc2nc3cc(NCCC)c(N)cc3[n+](CCCCCCCC)c2c1 [5e1]
[1]
  MIC: 16 µg/mL
[2]
  MIC: 16 µg/mL
[3]
  MIC: 16 µg/mL
SA‐K1758 (∆norA)
  MIC: 8 µg/mL
[4]
  Solution state stability (concentration at which visible precipitation was observed): Visible precipitation was observed at 128 µg mL^−1

## CCn1cc(C(=O)O)c(=O)c2cc(F)c(N3CCNCC3)cc21 [NOR, norfloxacin, reference compound]
[1]
  MIC: 2 µg/mL (≈ 6.26 µM)
[2]; SA 1199 (Wild‐type, basal), read-out: MIC
  MIC: 2 µg/mL (≈ 6.26 µM)
[3]
  MIC: 32 µg/mL (≈ 100 µM)
SA‐K1758 (∆norA)
  MIC: 0.25 µg/mL (≈ 0.783 µM)

## CCCCNc1ccc2nc3cc(NCCC)c(N)cc3[n+](CCCC)c2c1 [5d1]
[1]
  MIC: 16 µg/mL
[2]
  MIC: 16 µg/mL
[3]
  MIC: 16 µg/mL
SA‐K1758 (∆norA)
  MIC: 8 µg/mL
[4]
  Solution state stability (concentration at which visible precipitation was observed): Visible precipitation was observed at 128 µg mL^−1 and beyond

## CCCCCCCCNc1cc2nc3ccc(NCCCC)cc3[n+](CCCCCCCC)c2cc1N [5b3]
[1]
  MIC: 32 µg/mL
[2]
  MIC: 32 µg/mL
SA‐K1758 (∆norA)
  MIC: 32 µg/mL
[4]
  Solution state stability (concentration at which visible precipitation was observed): Visible precipitation was observed at 128 µg mL^−1 and beyond

## CCCCNc1ccc2nc3cc(NCCC)c(N)cc3[n+](CCC)c2c1 [5a1]
[1]
  MIC: 1 µg/mL
[2]
  MIC: 1 µg/mL
[3]
  MIC: 2 µg/mL
SA‐K1758 (∆norA)
  MIC: 0.5 µg/mL
[4]
  Solution state stability (concentration at which visible precipitation was observed): Visible precipitation was observed at 128 µg mL^−1 and beyond

## CCCCNc1cc2nc3ccc(NCCC)cc3[n+](CCC)c2cc1N [5c1]
[1]
  MIC: 2 µg/mL
[2]
  MIC: 2 µg/mL
[3]
  MIC: 2 µg/mL
SA‐K1758 (∆norA)
  MIC: 0.5 µg/mL
[4]
  Solution state stability (concentration at which visible precipitation was observed): Stable

## CCCCCCCCNc1ccc2nc3cc(NCCCCCCCC)c(N)cc3[n+](CCCCCCCC)c2c1 [5e3]
[1]
  MIC: 32 µg/mL
[2]
  MIC: 64 µg/mL
[3]
  MIC: 64 µg/mL
SA‐K1758 (∆norA)
  MIC: 64 µg/mL
[4]
  Solution state stability (concentration at which visible precipitation was observed): Visible precipitation was observed at 128 µg mL^−1

## CCCCCCCCNc1cc2nc3ccc(NCCCC)cc3[n+](CCC)c2cc1N [5a3]
[1]
  MIC: 64 µg/mL
[2]
  MIC: 64 µg/mL
[3]
  MIC: 64 µg/mL
SA‐K1758 (∆norA)
  MIC: 8 µg/mL
[4]
  Solution state stability (concentration at which visible precipitation was observed): Visible precipitation was observed at 128 µg mL^−1 and beyond

## CCCCNc1ccc2nc3cc(NCCCC)c(N)cc3[n+](CCC)c2c1 [5a2]
[1]
  MIC: 1 µg/mL
[2]
  MIC: 1 µg/mL
[3]
  MIC: 2 µg/mL
SA‐K1758 (∆norA)
  MIC: 0.25 µg/mL
[4]
  Solution state stability (concentration at which visible precipitation was observed): Visible precipitation was observed at 512 µg mL^−1 and beyond

## O=C(O)c1cn(C2CC2)c2cc(N3CCNCC3)c(F)cc2c1=O [CIP, Ciprofloxacin]
S. aureus strains [5]; strain ATCC25923, ref [4]
  Susceptibility profile: I
S. aureus strains [5]; strain ATCC25923_EtBr, ref [4]
  Susceptibility profile: I
S. aureus strains [5]; strain SA-1199, ref [2]
  Susceptibility profile: S
S. aureus strains [5]; strain SA-1199B, ref [2]
  Susceptibility profile: R
S. aureus strains [5]; strain SA-K1712, ref [3]
  Susceptibility profile: S
S. aureus strains [5]; strain SA-K1748, ref [3]
  Susceptibility profile: R
S. aureus strains [5]; strain SA-K1758, ref [2]
  Susceptibility profile: S
S. aureus strains [5]; strain SA-K2068, ref [3]
  Susceptibility profile: S
S. epidermidis strains
  Susceptibility profile: I

## CCCCCCCC[n+]1c2cc(NCCCC)ccc2nc2cc(NCCOC)c(N)cc21 [5b4]
[1]
  MIC: 1 µg/mL
[2]
  MIC: 1 µg/mL
[3]
  MIC: 1 µg/mL
SA‐K1758 (∆norA)
  MIC: 2 µg/mL
[4]
  Solution state stability (concentration at which visible precipitation was observed): excellent solubility and stability; also recorded: Stable

## CC[n+]1c(-c2ccccc2)c2cc(N)ccc2c2ccc(N)cc21 [EtBrCW, Ethidium bromide]
S. aureus strains [6]; strain ATCC25923, ref [4]
  Efflux detection method EtBrCW: Negative
S. aureus strains [6]; strain ATCC25923_EtBr, ref [4]
  Efflux detection method EtBrCW: Positive (isolates were considered positive if they exhibited fluorescence at the highest EtBr concentration tested (> 2.5 mg/L))
S. aureus strains [6]; strain BIOS-H1, ref [7]
  Efflux detection method EtBrCW: Negative
S. aureus strains [6]; strain BIOS-H2, ref [7]
  Efflux detection method EtBrCW: Negative
S. aureus strains [6]; strain BIOS-H3, ref [7]
  Efflux detection method EtBrCW: Negative
S. aureus strains [6]; strain BIOS-H5, ref [7]
  Efflux detection method EtBrCW: Negative
S. aureus strains [6]; strain BIOS-H6, ref [7]
  Efflux detection method EtBrCW: Negative
S. aureus strains [6]; strain BIOS-H12, ref [7]
  Efflux detection method EtBrCW: Negative
S. aureus strains [6]; strain BIOS-H13, ref [7]
  Efflux detection method EtBrCW: Negative
S. aureus strains [6]; strain BIOS-H17, ref [7]
  Efflux detection method EtBrCW: Negative
S. aureus strains [6]; strain BIOS-H20, ref [7]
  Efflux detection method EtBrCW: Negative
S. aureus strains [6]; strain BIOS-H21, ref [7]
  Efflux detection method EtBrCW: Negative
S. aureus strains [6]; strain BIOS-H22, ref [7]
  Efflux detection method EtBrCW: Negative
S. aureus strains [6]; strain BIOS-H25, ref [7]
  Efflux detection method EtBrCW: Negative
S. aureus strains [6]; strain BIOS-H28, ref [7]
  Efflux detection method EtBrCW: Negative
S. aureus strains [6]; strain BIOS-H29, ref [7]
  Efflux detection method EtBrCW: Negative
S. aureus strains [6]; strain BIOS-H30, ref [7]
  Efflux detection method EtBrCW: Negative
S. aureus strains [6]; strain BIOS-H32, ref [7]
  Efflux detection method EtBrCW: Negative
S. aureus strains [6]; strain BIOS-V21, ref [8]
  Efflux detection method EtBrCW: Negative
S. aureus strains [6]; strain BIOS-V31, ref [8]
  Efflux detection method EtBrCW: Negative
S. aureus strains [6]; strain BIOS-V60, ref [8]
  Efflux detection method EtBrCW: Negative
S. aureus strains [6]; strain BIOS-V61, ref [8]
  Efflux detection method EtBrCW: Negative
S. aureus strains [6]; strain BIOS-V62, ref [8]
  Efflux detection method EtBrCW: Negative
S. aureus strains [6]; strain BIOS-V74, ref [8]
  Efflux detection method EtBrCW: Negative
S. aureus strains [6]; strain BIOS-V75, ref [8]
  Efflux detection method EtBrCW: Negative
S. aureus strains [6]; strain BIOS-V85, ref [8]
  Efflux detection method EtBrCW: Negative
S. aureus strains [6]; strain BIOS-V118, ref [8]
  Efflux detection method EtBrCW: Negative
S. aureus strains [6]; strain BIOS-V128, ref [8]
  Efflux detection method EtBrCW: Negative
S. aureus strains [6]; strain BIOS-V147, ref [8]
  Efflux detection method EtBrCW: Negative
S. aureus strains [6]; strain BIOS-V151, ref [8]
  Efflux detection method EtBrCW: Negative
S. aureus strains [6]; strain BIOS-V156, ref [8]
  Efflux detection method EtBrCW: Negative
S. aureus strains [6]; strain BIOS-V157, ref [8]
  Efflux detection method EtBrCW: Negative
S. aureus strains [6]; strain BIOS-V158, ref [8]
  Efflux detection method EtBrCW: Negative
S. aureus strains [6]; strain BIOS-V203, ref [8]
  Efflux detection method EtBrCW: Negative
S. aureus strains [6]; strain BIOS-V245, ref [8]
  Efflux detection method EtBrCW: Negative
S. aureus strains [6]; strain BIOS-V250, ref [8]
  Efflux detection method EtBrCW: Negative
S. aureus strains [6]; strain BIOS-V257, ref [8]
  Efflux detection method EtBrCW: Negative
S. aureus strains [6]; strain BIOS-V279, ref [8]
  Efflux detection method EtBrCW: Negative
S. aureus strains [6]; strain BIOS-V295, ref [8]
  Efflux detection method EtBrCW: Negative
S. aureus strains [6]; strain SA-1199, ref [2]
  Efflux detection method EtBrCW: Negative
S. aureus strains [6]; strain SA-1199B, ref [2]
  Efflux detection method EtBrCW: Positive (isolates were considered positive if they exhibited fluorescence at the highest EtBr concentration tested (> 2.5 mg/L))
S. aureus strains [6]; strain SA-K1748, ref [3]
  Efflux detection method EtBrCW: Positive (isolates were considered positive if they exhibited fluorescence at the highest EtBr concentration tested (> 2.5 mg/L))
S. aureus strains [6]; strain SA-K1758, ref [2]
  Efflux detection method EtBrCW: Negative
S. aureus strains [6]; strain SM 1, ref [6]
  Efflux detection method EtBrCW: Positive (isolates were considered positive if they exhibited fluorescence at the highest EtBr concentration tested (> 2.5 mg/L))
S. aureus strains [6]; strain SM 2, ref [6]
  Efflux detection method EtBrCW: Negative^* (Isolates marked with (*) displayed fluorescence at intermediate EtBr concentrations (1–2 mg/L))
S. aureus strains [6]; strain SM 3, ref [6]
  Efflux detection method EtBrCW: Negative^* (Isolates marked with (*) displayed fluorescence at intermediate EtBr concentrations (1–2 mg/L))
S. aureus strains [6]; strain SM 4, ref [6]
  Efflux detection method EtBrCW: Negative
S. aureus strains [6]; strain SM 5, ref [6]
  Efflux detection method EtBrCW: Negative
S. aureus strains [6]; strain SM 6, ref [6]
  Efflux detection method EtBrCW: Negative
S. aureus strains [6]; strain SM 7, ref [6]
  Efflux detection method EtBrCW: Negative
S. aureus strains [6]; strain SM 8, ref [6]
  Efflux detection method EtBrCW: Negative^* (Isolates marked with (*) displayed fluorescence at intermediate EtBr concentrations (1–2 mg/L))

## CCCNc1ccc2nc3cc(NCCOC)c(N)cc3[n+](CCC)c2c1 [5c2]
[1]
  MIC: 4 µg/mL
[2]
  MIC: 8 µg/mL
[3]
  MIC: 8 µg/mL
SA‐K1758 (∆norA)
  MIC: 4 µg/mL
[4]
  Solution state stability (concentration at which visible precipitation was observed): excellent solubility and stability; also recorded: Stable

## CCCCCCCCNc1ccc2nc3cc(NC(C)(C)C)c(N)cc3[n+](CCCCCCCC)c2c1 [5e2]
[1]
  MIC: 8 µg/mL
[2]
  MIC: 8 µg/mL
[3]
  MIC: 8 µg/mL
SA‐K1758 (∆norA)
  MIC: 8 µg/mL
[4]
  Solution state stability (concentration at which visible precipitation was observed): Stable

## CCCCNc1ccc2nc3cc(NCCCC)c(N)cc3[n+](CCCC)c2c1 [5d2]
[1]
  MIC: 1 µg/mL
[2]
  MIC: 1 µg/mL
[3]
  MIC: 0.5 to 1 µg/mL
SA‐K1758 (∆norA)
  MIC: 0.5 µg/mL
[4]
  Solution state stability (concentration at which visible precipitation was observed): Visible precipitation was observed at 512 µg mL^−1 and beyond.
